Laboratory results taken from patent US20170151256A1, “ANTITUMOR AGENT” (ZERIA PHARMACEUTICAL CO., LTD., priority 2005, published 2017).
Structures can show the parent of a compound that is named as a salt. Where two headings read alike, the source gives them in different places.

Assays:
[1] = system: human colon cancer cells (HT-29); experiment: HT-29 subcutaneous xenograft, alone and in combination with 5-FU; type: in vivo, mouse
Description: 1×10^6 cells of human colon cancer cells (HT-29) were subcutaneously implanted into right abdomen of female Balb/c nude mice. […] For comparison, 5-FU was intraperitoneally administered to mice in positive control groups at doses of 3, 10, and 30 mg/kg once daily for 12 days. […] On the day following the final administration, the tumor was removed and weighed. […] Percent inhibition of tumor growth was calculated based on the tumor weights in each administration groups versus that in a control group.

[2] = system: human pancreatic cancer cells (MIAPaCa 2); experiment: MIAPaCa 2 subcutaneous xenograft, tumor weight; type: in vivo, mouse; conditions: female Balb/c nude mice
Description: 3×10^6 cells of human pancreatic cancer cells (MIAPaCa 2) were subcutaneously implanted into right abdomen of female Balb/c nude mice. […] On the day following the final administration, the tumor was removed and weighed. For comparison, vehicle was orally administered to mice in a control group, and the tumor weight was measured in similar manner to that described above. Percent inhibition of tumor growth was calculated based on the tumor weights in each administration group versus that in a control group.

[3] = system: human pancreatic cancer cells (PAN1VC); experiment: PAN1VC implanted into pancreas, tumor weight, alone and with gemcitabine; type: in vivo, mouse; conditions: male nude mice
Description: 1×10^6 cells of human pancreatic cancer cells (PAN1VC) were implanted into the pancreas of male nude mice. […] Percent inhibition of tumor growth was calculated based on the tumor weights in each administration groups versus that in a control group.

[4] = system: human colon cancer cells (C170HM2); experiment: C170HM2 intraperitoneal model, tumor metastasis to the liver; type: in vivo, mouse; conditions: 40 days after implantation, male nude mice
Description: 1.5×10^6 cells of human colon cancer cells (C170HM2) were intraperitoneally injected into male nude mice. […] Meanwhile, in a positive control group, the combination of 5-fluorouracil (hereinafter called “5-FU”) and leucovorin were intravenously administered (for each compound, 25 mg/kg/injection) one, four, seven, and 10 days after tumor implantation. Forty days after implantation of C170HM2 tumor, the weight of tumor-metastasized liver was measured.

[5] = system: human colon cancer cells (HT-29); experiment: HT-29 subcutaneous xenograft, tumor weight; type: in vivo, mouse; conditions: female Balb/c nude mice
Description: 1×10^6 cells of human colon cancer cells (HT-29) were subcutaneously implanted into right abdomen of female Balb/c nude mice. […] On the day following the final administration, the tumor was removed and weighed. In a control group, vehicle was orally administered to mice, and the tumor weight was measured in similar manner to that described above. Percent inhibition of tumor growth was calculated based on the tumor weights in each administration groups versus that in a control group.

[6] = Toxicity test through 28-day repeated oral administration to rats; type: in vivo
[7] = Toxicity test through 28-day repeated oral administration to dogs; type: in vivo
[8] = system: human pancreatic cancer PANC-1; conditions: Non-Patent Document 12, cited from earlier work
[9] = system: pancreatic cancer or colon cancer xenograft; conditions: only observed at a high dose of 200 mg/kg or more; Patent Document 1; cited from earlier work
[10] = system: human colon cancer xenograft; conditions: Non-Patent Document 14, cited from earlier work
[11] = system: human pancreatic cancer cells (PANC-1); experiment: PANC-1 implanted into pancreas, lethal model, survival rate; type: in vivo, mouse; conditions: gemcitabine hydrochloride 100 mg/kg i.v. on days 7, 10, 14 after implantation; 40 days after administration start (46 days after implantation); female SCID mice (control […])
Description: (§1) A small piece (70 to 80 mg) of human pancreatic cancer cells (PANC-1) was implanted into the pancreas of female SCID mice (15 mice for each group). […] In another group of mice, on seven, 10, and 14 days after the implantation, gemcitabine hydrochloride (Gemzar Injection®) as a positive control was intravenously injected at a dose of 100 mg/kg.

[12] = system: human pancreatic cancer cells (PANC-1); experiment: PANC-1 implanted into pancreas, lethal model, survival with gemcitabine combination (Table 1); type: in vivo, mouse; conditions: female SCID mice, compound A1 100 mg/kg oral once daily from day 7, GEM 100 mg/kg i.v. days 7, 10, 14
Description: as §1, with “after” for “after the”, “Injection®)” for “Injection®) as a positive control”, “administered” for “injected”

[13] = 30, 100, 300 or 1,000 mg/kg oral for 28 days, male and female SD rats, any group
[14] = 30, 100, 300 or 1,000 mg/kg oral for 28 days, male and female beagle dogs, any group
[15] = rats, 1,000 mg/kg for 28 consecutive days (summary statement)
[16] = dogs, 1,000 mg/kg for 28 consecutive days (summary statement)

For `O=c1[nH]cc(F)c(=O)[nH]1` [5-FU, 5-fluorouracil], the “Percent inhibition of tumor growth (tumor weight vs control)” value (shortened to “Percent inhibition of tumor growth”) ([1]; 5-FU alone, 3 mg/kg i.p. once daily for 12 days) was 24%, the “Percent inhibition of tumor growth” value ([1]; 5-FU alone, 10 mg/kg i.p. once daily for 12 days) was 30% and the “Percent inhibition of tumor growth” value ([1]; 5-FU alone, 30 mg/kg i.p. once daily for 12 days) was 58%.
For “calcium (R)-(−)-3-[3-(1-tert-butylcarbonylmethyl-2-oxo-5-cyclohexyl-1,3,4,5-tetrahydro-2H-1,5-benzodiazepin-3-yl)ureido]benzoate [compound A1]”, the “Percent inhibition of tumor growth” value ([2]; 30 mg/kg oral once daily for 21 days) was 40%, the “Percent inhibition of tumor growth” value ([2]; 100 mg/kg oral once daily for 21 days) was 42% and the “Percent inhibition of tumor growth” value ([3]; compound A1 alone, 30 mg/kg oral once daily for 36 days) was 19%. For the same compound, the “Percent inhibition of tumor growth” value ([3]; compound A1 alone, 100 mg/kg oral once daily for 36 days) was 23%, the “Inhibition of tumor metastasis to the liver (weight of tumor-metastasized liver)” value ([4]; 3 mg/kg oral once daily) was 73% and the “Inhibition of tumor metastasis to the liver (weight of tumor-metastasized liver)” value ([4]; 30 mg/kg oral once daily) was 81%. For the same compound, the “Percent inhibition of tumor growth” value ([5]; 30 mg/kg oral once daily for 17 days from 4 days after implantation) was 44%, the “Percent inhibition of tumor growth” value ([5]; 100 mg/kg oral once daily for 17 days from 4 days after implantation) was 50% and the “Percent inhibition of tumor growth” value ([1]; compound A1 alone, 30 mg/kg oral once daily for 12 days from 10 days after implantation) was 34%. The “Abnormality in body weight, feed intake, ophthalmological test, urine test, organ weight, autopsy finding, histopathological test” value (“Abnormality … histopathological test” below) [6, 13] was “no abnormality was found”, the Deaths [6, 13] was “no deaths were observed” and the “Abnormality in body weight, feed intake, ophthalmological test, electrocardiogram, blood pressure, urine test, hematological test, blood biochemical test, organ weight, autopsy finding” value [7, 14] was “no abnormality was found”. The Deaths [7, 14] was “no deaths were observed”.
For `Cc1cccc(NC(=O)N[C@@H]2N=C(c3ccccc3)c3ccccc3N(C)C2=O)c1` [L-365,260], the Gastrin-induced tumor growth ([8]; with gastrin stimulation) is given as “suppresses gastrin-induced tumor growth” and the “Tumor growth without stimulation by gastrin” value ([8]; without gastrin stimulation) is given as “does not suppress tumor growth”.
For `CNc1cccc(NC(=O)N[C@@H]2N=C(c3ccccn3)c3ccccc3N(CC(=O)C(C)(C)C)C2=O)c1` [YF476], the Tumor-shrinking effect [9] is listed as “exhibits tumor-shrinking effect”.
With `CC(C)(C)C(=O)CN1C(=O)[C@H](NC(=O)Nc2cccc(C(=O)O)c2)CN(C2CCCCC2)c2ccccc21` [compound A, (R)-(−)-3-[3-(1-tert-butylcarbonylmethyl-2-oxo-5-cyclohexyl-1,3,4,5-tetrahydro-2H-1,5-benzodiazepin-3-yl)ureido]benzoic acid] the “Abnormality … histopathological test” value [6, 15] was “no abnormality was found”, the Deaths [6, 15] was “no deaths were observed” and the “Abnormality … histopathological test” value [7, 16] was “no abnormality was found”. The Deaths [7, 16] was “no deaths were observed”.
For `C[C@](Cc1c[nH]c2ccccc12)(NC(=O)OC1[C@H]2C[C@@H]3C[C@@H](C[C@H]1C3)C2)C(=O)NC[C@H](NC(=O)CCC(=O)O)c1ccccc1` (some centres unmarked) [CI-988], the “Cell growth suppressive effect” value ([10]; oral 25 mg/kg, without non-physiological gastrin stimulation) is given as “exhibits cell growth suppressive effect” and the “Cell growth suppressive effect” value ([10]; oral 50 mg/kg) is given as “exhibits no cell growth suppressive effect”.
For `Nc1ccn([C@@H]2O[C@H](CO)[C@@H](O)C2(F)F)c(=O)n1` [gemcitabine hydrochloride], the “Percent inhibition of tumor growth” value ([3]; gemcitabine hydrochloride alone, 5 mg/kg i.v. on days 1, 3, 6 after implantation) was 32%, the Survival rate [11] was 93.3% and the “Survival rate at 60 days after initiation of administration (66 days after implantation)” value ([12]; alone or combined (control 0)) was 0%. For the same compound, the Median survival time ([12]; alone or combined (control 39)) was 48 days, the “Survival rate at 50 days after initiation of administration (56 days after implantation)” value ([12]; alone or combined (control 40)) was 20% and the Average survival time ([12]; alone or combined (control 43)) was 46.9 days. The “Days of death of the last individual” value ([12]; alone or combined (control 56)) was 54 days.
